The values below come from paper PMC4651778 (Journal of structural biology, 2015).

Assay [1] deals with Liver Receptor Homolog-1 (LRH-1, NR5A2) (Homo sapiens, UniProt O00482). In words: crystal structure. Format: binding.
Another assay has as its target T1, DAX-1 140-154 (Homo sapiens, UniProt P51843).
T1 chain: PRQGSILYSLLTSSK
Briefly: SPR. For orientation: SPR reads the build-up and loss of mass on a sensor chip optically.

Broadly, the Kd is the constant that tells how readily two partners part at equilibrium.

Liver Receptor Homolog-1 (LRH-1, NR5A2), sequence (O00482 294-541): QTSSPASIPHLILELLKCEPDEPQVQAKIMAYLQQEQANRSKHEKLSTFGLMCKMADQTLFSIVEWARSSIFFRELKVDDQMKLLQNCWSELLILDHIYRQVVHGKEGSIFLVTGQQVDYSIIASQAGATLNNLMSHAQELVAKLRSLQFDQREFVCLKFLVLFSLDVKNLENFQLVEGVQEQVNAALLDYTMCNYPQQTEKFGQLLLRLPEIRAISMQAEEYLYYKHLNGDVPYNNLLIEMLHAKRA

In assay [1], `CCCCCCCCCCCCCCCC(=O)OC[C@@H](COP(=O)(O)O[C@H]1[C@H](O)[C@@H](OP(=O)(O)O)[C@H](OP(=O)(O)O)[C@@H](OP(=O)(O)O)[C@H]1O)OC(=O)CCCCCCCCCCCCCCC` [PIP3] displayed a Kd of 120 ± 9 nM.

B1: LRH-1 LBD (protein)
chain: SIPHLILELLKCEPDEPQVQAKIMAYLQQEQANRSKHEKLSTFGLMCKMADQTLFSIVEWARSSIFFRELKVDDQMKLLQNCWSELLILDHIYRQVVHGKEGSIFLVTGQQVDYSIIASQAGATLNNLMSHAQELVAKLRSLQFDQREFVCLKFLVLFSLDVKNLENFQLVEGVQEQVNAALLDYTMCNYPQQTEKFGQLLLRLPEIRAISMQAEEYLYYKHLNGDVPYNNLLIEMLHAK
Molecule B1 returned a Kd with DAX-1 140-154 of 90 nM.
